In patent US20100324091A1, “Pyrazolone Derivative” (Kowa Company, Ltd., priority 2007, published 2010):
pIC50: −log10 of the molar value.

Legend:
C57BL/6 mice = assay: Bleomycin-induced lung fibrosis model; type: in vivo; conditions: Mus musculus, po, 504 h, 0.3 mg/kg orally once a day, three weeks after intratracheal bleomycin 6 mg/kg, vs solvent-administered group, read-out: Inhibitory ratio against the increment in the lung hydroxyproline amount
Excerpt: It is reported that administering bleomycin into the trachea induces fibrosis of the lung. According to the pathological observation, it is similar to clinical idiopathic pulmonary fibrosis in terms of the thickened fibrosis of the alveolar wall, an increase in inflammatory cells, an increment in the amount of hydroxyproline, etc., and is often used as a lung fibrosis experimental model (Biochem. Biophys. Res. Comm., 288, 747 (2001)). Bleomycin hydrochloride (Bleo: Nippon Kayaku Co., Ltd.) dissolved in physiological saline was injected with 500 μl of compressed air into the bronchi of C57BL/6 mice (6 week old, female) at 6 mg/kg and 25 μl/body. Three weeks after the intratracheal administration, the amount of hydroxyproline in the lung was measured. The materials to be tested, at 0.3 mg/kg per dose, were suspended in 0.5% sodium carboxymethyl cellulose, and administered orally once a day. The effect of the present invention is represented by a inhibitory ratio against the increment in the amount of lung hydroxyproline of the solvent-administered group, and is shown in Table 3 below.

[1] = test system: PAI-1 production in human bronchial epithelial cells (BEAS-2B); assay: PAI-1 production inhibitory activity using bronchial epithelial cells; type: cell-based; conditions: BEAS-2B cells, TGF-β stimulation, 24 hrs, PAI-1 in supernatant by ELISA
Description: The effect of a compound against PAI-1 production activity was investigated using bronchial epithelial cells which reflect the PAI-1 concentration in the lung tissue involved in fibrosis (lung).
The effect against the amount of PAI-1 production was investigated using human bronchial epithelial cells (BEAS-2B). 0.1 ml of the BEAS-2B cells prepared to 2×10^5 cells/ml were added to each of the 96 wells of a collagen I coated plate, and precultured for 24 hrs. Then 0.1 ml of a medium containing […] of TGF-β was added, and after 24 hrs of incubation, the PAI-1 amount in the supernatant of the medium was measured by an ELISA kit. The materials to be tested were, after dissolved in dimethyl sulfoxide (the final concentration: 0.1% or lower), prepared to 0.2, 1, 5, and 25 μM with a phosphate buffer solution, and added to the preculture.

Q: With COc1ccc(C2=NNC(=O)C2)cc1OC1Cc2ccccc2C1 [Compound No. 1, 3-(3-(2-indanyloxy)-4-methoxyphenyl)-5-pyrazolone] as the compound, how does the inhibition in vivo at 0.3 mg/kg (C57BL/6 mice) read?
A: 77%

Q: With COc1ccc(C2=NN(C)C(=O)C2)cc1OC1Cc2ccccc2C1 [Compound No. 2, 3-(3-(2-indanyloxy)-4-methoxyphenyl)-1-methyl-5-pyrazolone] as the compound, how does the pIC50 [1] read?
A: 5.85

Q: And the inhibition in vivo at 0.3 mg/kg (C57BL/6 mice)?
A: 75%

Q: With COc1ccc(C2=NNC(=O)C2)cc1OC1CCCC1 [Compound No. 3, 3-(3-(cyclopentyloxy)-4-methoxyphenyl)-5-pyrazolone] as the compound, how does the pIC50 [1] read?
A: 5.12

Q: What about the inhibition in vivo at 0.3 mg/kg (C57BL/6 mice) of the same compound?
A: 73%

Q: Which inhibition in vivo at 0.3 mg/kg (C57BL/6 mice) does the source give for COc1ccc(C2=NN(C)C(=O)C2)cc1OC1CCCC1 [Compound No. 4, 3-(3-(cyclopentyloxy)-4-methoxyphenyl)-1-methyl-5-pyrazolone] here?
A: 73%

Q: Which inhibition in vivo at 0.3 mg/kg (C57BL/6 mice) does the source give for COc1ccc(C2=NN(c3ccccc3)C(=O)C2)cc1OC1Cc2ccccc2C1 [Compound No. 5, 3-(3-(2-indanyloxy)-4-methoxyphenyl)-1-phenyl-5-pyrazolone] here?
A: 75%

Q: How did the pIC50 [1] turn out when COc1ccc(C2=NN(c3ccccc3)C(=O)C2)cc1OC1CCCC1 [Compound No. 6, 3-(3-(cyclopentyloxy)-4-methoxyphenyl)-1-phenyl-5-pyrazolone] was run?
A: 5.59

Q: And the inhibition in vivo at 0.3 mg/kg (C57BL/6 mice)?
A: 52%

Q: Which inhibition in vivo at 0.3 mg/kg (C57BL/6 mice) does the source give for COc1ccc(C2=NN(c3ccc(C(=O)O)cc3)C(=O)C2)cc1OC1CCCC1 [Compound No. 7, 3-(3-(cyclopentyloxy)-4-methoxyphenyl)-1-(4-hydroxycarbonylphenyl)-5-pyrazolone] here?
A: 57%

Q: How did the inhibition in vivo at 0.3 mg/kg (C57BL/6 mice) turn out when O=C1CC(c2ccc(OC(F)F)c(OC3CCCC3)c2)=NN1 [Compound No. 8, 3-(3-(cyclopentyloxy)-4-(difluoromethoxy)phenyl)-5-pyrazolone] was run?
A: 61%

Q: How did the inhibition in vivo at 0.3 mg/kg (C57BL/6 mice) turn out when COc1ccc(C2=NNC(=O)C2)cc1OCC1CC1 [Compound No. 9, 3-(3-(cyclopropylmethoxy)-4-methoxyphenyl)-5-pyrazolone] was run?
A: 60%
